# In patent US20190060261A1, “ACTIVE COMBINATIONS OF PERILLIC ACID AND ACTIVITY ENHANCING SUBSTANCES” (B.R.A.I.N BIOTECHNOLOGY RESEARCH AND INFORMATION NETWORK AG, priority 2016, published 2019):
# Read-outs that look alike come from different tables or passages of the source.
# Columns and labels:
# [1] = system: Escherichia coli ATCC 8739; test: Minimal inhibition concentration (MIC), microdilution method adapted from DIN EN ISO 20776-1:2006; assay type: cell-based; conditions: for MIC: Escherichia coli
# Description: (§1) The antimicrobial activity of different substances was examined and compared to perillic acid in vitro using the microdilution method adapted from DIN EN ISO 20776-1:2006. Besides perillic acid and its sodium salt, other organic acids like levulinic acid, p-anisic acid, benzoic acid and sorbic acid as well as alkane-1,2-diols such as hexane-1,2-diol, octane-1,2-diol and decane-1,2-diol were studied. Additionally, the commonly used preservatives 2-phenoxyethanol, 2-phenylethanol and benzyl alcohol were investigated.
# (§2) All experiments were done in 96-well plates in a final volume of 200 μL. Test solutions of the investigated compounds were prepared in 25 mM buffered water. The procedure was conducted as following: 4 μL of the particular stock solution were mixed with 196 μL culture medium containing a defined inoculum of the respective target strain. Sterile controls (not inoculated) and growth controls (buffer instead of compound added) were performed. All compound concentrations were tested in triplicate for several times. The following contamination germs were examined: Escherichia coli ATCC 8739, Pseudomonas aeruginosa ATCC 9027, Stapyhlococcus aureus ATCC®6538, Bacillus subtilis subsp. spizizenii ATCC®6633, Candida albicans ATCC®10231 and Aspergillus brasiliensis ATCC®16404. The strains were cultivated either in Mueller-Hinton II Bouillon (Escherichia coli, Pseudomonas aeruginosa, Staphylococcus aureus), in yeast peptone dextrose (Bacillus subtilis, Candida albicans) or in potato dextrose medium (Aspergillus brasiliensis). All culture media were buffered with 25 mM MES-buffer. For compound testing, the plates were incubated at 37° C. for Escherichia coli, Pseudomonas aeruginosa and Staphylococcus aureus, at 28° C. for Bacillus subtilis and Candida albicans, and at 25° C. for Aspergillus brasiliensis. Plates were evaluated after 24 h and 72 h, respectively. The minimal inhibitory concentration (MIC) is defined as the concentration where no microbial growth was observed after 24 h and 72 h incubation at the specified temperature.
# (§3) MIC-values are given according to the following letter code.
# [2] = system: Aspergillus brasiliensis ATCC®16404; test: Minimal inhibition concentration (MIC), microdilution method; assay type: cell-based; conditions: for MIC: Aspergillus brasiliensis
# Description: as §1, §2, §3
# [3] = system: Bacillus subtilis subsp. spizizenii ATCC®6633; test: as above; assay type: cell-based; conditions: for MIC: Bacillus subtilis
# Description: as §1, §2, §3
# [4] = system: Candida albicans ATCC®10231; test: as above; assay type: cell-based; conditions: for MIC: Candida albicans
# Description: as §1, §2, §3
# [5] = system: Pseudomonas aeruginosa ATCC 9027; test: as above; assay type: cell-based; conditions: for MIC: Pseudomonas aeruginosa
# Description: as §1, §2, §3
# [6] = system: Stapyhlococcus aureus ATCC®6538; test: as above; assay type: cell-based, Staphylococcus aureus; conditions: for MIC: Staphylococcus aureus
# Description: as §1, §2, §3
# Escherichia coli = test: Combination of substances with perillic acid: reduction of the MIC of perillic acid; assay type: cell-based; conditions: test compound combined with perillic acid; experiments as in Example 1
# Protocol: as §2
# (§4) Activity of perillic acid was comparably low against Gram-negative bacteria. It was thus tested whether the respective MIC could be reduced by combination of perillic acid with selected substances.
# (§5) Experiments were performed as described for Example 1 above. A reduction factor was determined, expressing the reduction of the MIC of perillic acid that was achievable by combination with the combination partner. For example, a reduction factor of 2 means that the MIC of perillic acid was reduced by a factor of 2 by combination of perillic acid with the respective activity enhancing substance.
# Pseudomonas aeruginosa = test: as above; assay type: cell-based; conditions: test compound combined with perillic acid; experiments as in Example 1
# Protocol: as §2, §4, §5
# [7] = system: Escherichia coli, Pseudomonas aeruginosa, Stapyhlococcus aureus, Candida albicans and Aspergillus brasiliensis; test: Conservation efficacy test according to DIN EN ISO 11930 in cosmetic formulation, all five test strains; assay type: cell-based; conditions: cosmetic formulation (oil-water-emulsion), day 0 to day 28
# Protocol: The composition of the formulations was in general as follows (ingredient amounts according to the FDA-code):
# In order to confirm the activity against Gram-positive and Gram-negative bacteria, yeasts and moulds, conservation efficacy tests were performed according to DIN EN ISO 11930. The following classical contamination germs were examined: Escherichia coli (Ec in FIGS. 1 and 2) ATCC®8739, Pseudomonas aeruginosa (Pa in FIGS. 1 and 2) ATCC®9027, Stapyhlococcus aureus (Sa in FIGS. 1 and 2) ATCC®6538, Candida albicans (Ca in FIGS. 1 and 2) ATCC®10231 and Aspergillus brasiliensis (Ab in FIGS. 1 and 2) ATCC®16404. Media composition, incubation conditions and dilution procedures were all conducted according to the guidelines.
# Data are presented as line graphs. […] The tested contamination germs are identified by different symbols as indicated in the diagrams with the following abbreviations: […]
# [8] = ATCC8739, read-out: MIC [A to D] Escherichia coli
# [9] = ATCC6633, read-out: MIC [A to D] Bacillus subtilis
# [10] = ATCC10231, read-out: MIC [A to D] Candida albicans
# [11] = ATCC9027, read-out: MIC [A to D] Pseudomonas aeruginosa
# [12] = ATCC8739, Mueller-Hinton II Bouillon, 25 mM MES-buffer, 37° C., no growth after 24 h and 72 h, read-out: MIC [A to D] Escherichia coli
# [13] = ATCC16404, potato dextrose medium, 25 mM MES-buffer, 25° C., no growth after 24 h and 72 h, read-out: MIC [A to D] Aspergillus brasiliensis
# [14] = ATCC6633, yeast peptone dextrose, 25 mM MES-buffer, 28° C., no growth after 24 h and 72 h, read-out: MIC [A to D] Bacillus subtilis
# [15] = ATCC10231, yeast peptone dextrose, 25 mM MES-buffer, 28° C., no growth after 24 h and 72 h, read-out: MIC [A to D] Candida albicans
# [16] = ATCC9027, Mueller-Hinton II Bouillon, 25 mM MES-buffer, 37° C., no growth after 24 h and 72 h, read-out: MIC [A to D] Pseudomonas aeruginosa
# [17] = ATCC6538, Mueller-Hinton II Bouillon, 25 mM MES-buffer, 37° C., no growth after 24 h and 72 h, read-out: MIC [A to D] Staphylococcus aureus
# [18] = potato dextrose medium, 25 mM MES-buffer, 25° C., no growth after 24 h and 72 h
# [19] = yeast peptone dextrose, 25 mM MES-buffer, 28° C., no growth after 24 h and 72 h
# [20] = Mueller-Hinton II Bouillon, 25 mM MES-buffer, 37° C., no growth after 24 h and 72 h
SMILES,Reduction factor (reduction of the MIC of perillic acid by combination with the test compound) Escherichia coli (Escherichia coli),Reduction factor (reduction of the MIC of perillic acid by combination with the test compound) Pseudomonas aeruginosa (Pseudomonas aeruginosa),"MIC [1, 12] [µg/mL]","MIC [2, 13] [µg/mL]","MIC [5, 16] [µg/mL]","MIC [A to D] Aspergillus brasiliensis [2, 18]","MIC [A to D] Bacillus subtilis [3, 19]","MIC [A to D] Candida albicans [4, 19]","MIC [A to D] Staphylococcus aureus [6, 20]","MIC [A to D] Pseudomonas aeruginosa [5, 20]","MIC [A to D] Escherichia coli [1, 20]",also measured
"OCCOc1ccccc1 [2-Phenoxyethanol, reference compound]",30,20,,,,,,,,,,"MIC [1, 8]: 5000 to 10000 µg/mL; MIC ([2]; ATCC16404, read-out: MIC [A to D] Aspergillus brasiliensis): 5000 to 10000 µg/mL; MIC [3, 9]: 5000 to 10000 µg/mL; MIC [4, 10]: 5000 to 10000 µg/mL; MIC [5, 11]: 5000 to 10000 µg/mL; MIC ([6]; ATCC6538, read-out: MIC [A to D] Staphylococcus aureus): 5000 to 10000 µg/mL"
"OCCc1ccccc1 [2-Phenylethanol, reference compound]",40,8,5000 to 10000,5000 to 10000,5000 to 10000,,,,,,,"MIC [3, 14]: 5000 to 10000 µg/mL; MIC [4, 15]: 5000 to 10000 µg/mL; MIC [6, 17]: 5000 to 10000 µg/mL"
"OCc1ccccc1 [Benzyl Alcohol, reference compound]",20,5,5000 to 10000,5000 to 10000,5000 to 10000,,,,,,,"MIC [3, 14]: 5000 to 10000 µg/mL; MIC [4, 15]: 5000 to 10000 µg/mL; MIC [6, 17]: 5000 to 10000 µg/mL"
"CCCCCCCCC(O)CO (stereo not shown) [Decane-1,2-diol]",,,1000 to 5000,,1000 to 5000,D (MIC<0.1% (w/v)),D (MIC<0.1% (w/v)),D (MIC<0.1% (w/v)),D (MIC<0.1% (w/v)),,,
CC(=O)C1C(=O)C=C(C)OC1=O (stereo not shown) [Dehydroacetic acid],,,,,,D (MIC<0.1% (w/v)),D (MIC<0.1% (w/v)),D (MIC<0.1% (w/v)),D (MIC<0.1% (w/v)),,,"MIC [1, 8]: 1000 to 5000 µg/mL; MIC [5, 11]: 1000 to 5000 µg/mL"
"CCCCCCCCCCC(O)CO (stereo not shown) [Dodecane-1,2-diol]",,,5000 to 10000,,,D (MIC<0.1% (w/v)),D (MIC<0.1% (w/v)),D (MIC<0.1% (w/v)),D (MIC<0.1% (w/v)),D (MIC<0.1% (w/v)),,
"CCCCC(O)CO (stereo not shown) [Hexane-1,2-diol]",,,5000 to 10000,5000 to 10000,5000 to 10000,,A (MIC>1% (w/v)),A (MIC>1% (w/v)),A (MIC>1% (w/v)),,,
C/C=C/C=C/C(=O)[O-].[K+] [Potassium sorbate],200,40,,,,A (MIC>1% (w/v)),,,A (MIC>1% (w/v)),A (MIC>1% (w/v)),,"MIC [1, 8]: 5000 to 10000 µg/mL; MIC [3, 9]: 1000 to 5000 µg/mL; MIC [4, 10]: 5000 to 10000 µg/mL"
O=C([O-])c1ccccc1.[Na+] [Sodium benzoate],,,,,,A (MIC>1% (w/v)),D (MIC<0.1% (w/v)),C (MIC=0.1-0.5% (w/v)),B (MIC=0.5-1% (w/v)),B (MIC=0.5-1% (w/v)),B (MIC=0.5-1% (w/v)),

# Now from value to compound, other results behind:
Reduction factor (reduction of the MIC of perillic acid by combination with the test compound) Escherichia coli (Escherichia coli),Reduction factor (reduction of the MIC of perillic acid by combination with the test compound) Pseudomonas aeruginosa (Pseudomonas aeruginosa),"MIC [1, 12] [µg/mL]","MIC [2, 13] [µg/mL]","MIC [5, 16] [µg/mL]","MIC [A to D] Aspergillus brasiliensis [2, 18]","MIC [A to D] Bacillus subtilis [3, 19]","MIC [A to D] Candida albicans [4, 19]","MIC [A to D] Staphylococcus aureus [6, 20]","MIC [A to D] Pseudomonas aeruginosa [5, 20]","MIC [A to D] Escherichia coli [1, 20]",SMILES,also measured
200,40,1000 to 5000,1000 to 5000,1000 to 5000,,,A (MIC>1% (w/v)),,,,CC(=O)CCC(=O)O [Levulinic acid],"MIC [3, 14]: 5000 to 10000 µg/mL; MIC [6, 17]: 1000 to 5000 µg/mL; criteria according to the guidelines for an adequate conservation (all five test strains) [7]: does not fulfill the criteria"
,,,,,D (MIC<0.1% (w/v)),D (MIC<0.1% (w/v)),D (MIC<0.1% (w/v)),D (MIC<0.1% (w/v)),B (MIC=0.5-1% (w/v)),C (MIC=0.1-0.5% (w/v)),C=C(C)[C@H]1CC=C(C(=O)O)CC1 [R-Perillic acid],
,,,,,D (MIC<0.1% (w/v)),D (MIC<0.1% (w/v)),D (MIC<0.1% (w/v)),D (MIC<0.1% (w/v)),B (MIC=0.5-1% (w/v)),C (MIC=0.1-0.5% (w/v)),C=C(C)[C@@H]1CC=C(C(=O)O)CC1 [S-Perillic acid],
40,80,,1000 to 5000,,,D (MIC<0.1% (w/v)),,D (MIC<0.1% (w/v)),D (MIC<0.1% (w/v)),D (MIC<0.1% (w/v)),O=C(O)c1ccccc1O [Salicylic acid],"MIC [4, 15]: 1000 to 5000 µg/mL"
,,,,,D (MIC<0.1% (w/v)),D (MIC<0.1% (w/v)),D (MIC<0.1% (w/v)),D (MIC<0.1% (w/v)),B (MIC=0.5-1% (w/v)),C (MIC=0.1-0.5% (w/v)),C=C(C)C1CC=C(C(=O)[O-])CC1.[Na+] (stereo not shown) [Sodium perillate],
,,1000 to 5000,1000 to 5000,1000 to 5000,,,,,,,COc1ccc(C(=O)O)cc1 [p-Anisic acid],"MIC [3, 14]: 1000 to 5000 µg/mL; MIC [4, 15]: 5000 to 10000 µg/mL; MIC [6, 17]: 1000 to 5000 µg/mL"
